Laboratory results taken from paper PMC11127330, “Repurposing harmaline as a novel approach to reverse tmexCD1-toprJ1-mediated tigecycline resistance against klebsiella pneumoniae infections” (Microbial Cell Factories, 2024).

Target: T1, TMexD1 (Klebsiella pneumoniae, UniProt A0A411AKL6)
T1 construct: GST fusion from pGEX-6P-1-tmexD1 (BamHI/XhoI), E. coli BL21(DE3); plasmid-borne gene of tmexCD1-toprJ1
Experiment: circular dichroism, secondary structure change
Details: harmaline 128 mg/L; 190-260 nm; indirect evidence of binding

T1 sequence (A0A411AKL6 entry or part of it): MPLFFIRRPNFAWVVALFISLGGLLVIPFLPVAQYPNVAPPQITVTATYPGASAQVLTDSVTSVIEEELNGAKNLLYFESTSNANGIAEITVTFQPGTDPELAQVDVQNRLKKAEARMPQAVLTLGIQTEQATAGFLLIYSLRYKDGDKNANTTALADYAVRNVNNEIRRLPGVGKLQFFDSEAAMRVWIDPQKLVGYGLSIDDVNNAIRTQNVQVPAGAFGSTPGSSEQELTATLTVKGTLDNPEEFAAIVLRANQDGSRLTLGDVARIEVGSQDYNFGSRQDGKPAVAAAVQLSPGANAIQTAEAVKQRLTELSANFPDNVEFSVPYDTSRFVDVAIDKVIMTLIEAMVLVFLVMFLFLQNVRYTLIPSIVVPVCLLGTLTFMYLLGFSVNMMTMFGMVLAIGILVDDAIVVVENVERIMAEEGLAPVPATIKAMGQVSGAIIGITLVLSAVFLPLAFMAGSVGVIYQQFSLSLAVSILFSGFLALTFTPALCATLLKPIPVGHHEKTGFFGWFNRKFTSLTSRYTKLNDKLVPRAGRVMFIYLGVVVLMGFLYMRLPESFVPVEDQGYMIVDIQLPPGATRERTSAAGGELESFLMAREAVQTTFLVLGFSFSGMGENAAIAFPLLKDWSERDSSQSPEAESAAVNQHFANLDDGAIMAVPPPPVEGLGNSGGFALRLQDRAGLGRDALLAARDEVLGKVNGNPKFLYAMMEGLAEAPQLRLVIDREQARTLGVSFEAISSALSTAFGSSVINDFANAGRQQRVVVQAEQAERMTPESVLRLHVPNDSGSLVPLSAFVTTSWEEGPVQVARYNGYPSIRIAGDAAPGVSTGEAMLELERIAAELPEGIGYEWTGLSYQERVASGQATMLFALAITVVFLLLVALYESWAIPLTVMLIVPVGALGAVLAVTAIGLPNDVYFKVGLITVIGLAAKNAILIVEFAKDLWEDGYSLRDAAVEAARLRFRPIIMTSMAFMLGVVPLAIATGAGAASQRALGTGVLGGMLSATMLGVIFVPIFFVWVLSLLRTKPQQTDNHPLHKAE

For `COc1ccc2c3c([nH]c2c1)C(C)=NCC3` [harmaline], the “circular dichroism, secondary structure change” value was “TMexD1 (Fig. 7C and D) and TOprJ1 (Fig. 7E and F) were observed by harmaline treatment”.
